Reference: ChEMBL document CHEMBL1139664, “Identification of a novel series of tetrahydrodibenzazocines as inhibitors of 17beta-hydroxysteroid dehydrogenase type 3” (Bioorg Med Chem Lett, 2006)

Key:
[1] = target: T1, 17-beta-hydroxysteroid dehydrogenase type 3 (Homo sapiens, UniProt P37058); test: Inhibition of 17beta-HSD3
T1 sequence (P37058 whole entry): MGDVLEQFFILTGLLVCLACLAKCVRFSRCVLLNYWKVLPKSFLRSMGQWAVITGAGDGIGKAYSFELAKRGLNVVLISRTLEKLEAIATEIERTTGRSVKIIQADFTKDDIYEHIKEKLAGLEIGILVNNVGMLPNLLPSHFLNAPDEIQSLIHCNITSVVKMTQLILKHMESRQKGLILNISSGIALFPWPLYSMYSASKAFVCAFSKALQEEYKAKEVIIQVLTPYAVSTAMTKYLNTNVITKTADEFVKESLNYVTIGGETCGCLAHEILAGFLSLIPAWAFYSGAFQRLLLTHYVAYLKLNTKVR

[2] = target: T1, 17-beta-hydroxysteroid dehydrogenase type 3; test: Inhibition of 17beta-HSD3 by SEAP assay
Liver microsomes = test: Stability in human liver microsome at 10 uM; type: ADME

Structure (SMILES) | IC50 [1] [nM] | IC50 [2] [nM] | Stability (Liver microsomes) [nmol/mg/min]
COc1ccc2c(c1)SCc1ccccc1CN2C(C)=O | 2060 | > 10000 | –
CC(=O)N1Cc2ccc(NC(=O)c3ccccc3)cc2CCc2ccccc21 | 160 | 260 | –
CC(=O)N1Cc2ccc(C(N)=O)cc2CCc2ccccc21 | > 1000 | 2980 | –
CC(=O)N1Cc2ccc(NCc3ccccc3)cc2CCc2ccccc21 | 8 | 4 | –
CC(=O)N1Cc2ccccc2CSc2ccc(Cl)cc21 | 30 | 170 | –
CC(=O)N1Cc2ccccc2CSc2cc(F)ccc21 | 90 | 290 | –
CC(=O)N1Cc2cc(Br)ccc2CCc2ccccc21 | 9 | 32 | –
CC(=O)N1Cc2ccccc2CSc2cc(Cl)c(Cl)cc21 | 10 | 130 | –
CC(=O)N1Cc2ccccc2CSc2cc(Br)ccc21 | 250 | 120 | –
CC(=O)N1Cc2cc(-c3ccc(C#N)cc3)ccc2CCc2cc(Cl)ccc21 | 3 | 19 | –
CC(=O)N1Cc2ccccc2CSc2ccccc21 | 400 | 320 | –
CC(=O)N1Cc2ccccc2CSc2cc(C)ccc21 | 1000 | 870 | –
CC(=O)N1Cc2cc(-c3ccccc3CN)ccc2CCc2cc(Cl)ccc21 | 239 | 182 | –
COC(=O)c1ccccc1-c1ccc2c(c1)CN(C(C)=O)c1ccc(Br)cc1CC2 | 0.7 | 1 | 0.4
CCN1Cc2ccc(Br)cc2CCc2ccccc21 | > 1000 | 2200 | –
CC(=O)N1Cc2ccc(Br)cc2CCc2ccccc21 | 7 | 36 | –
NC(=O)N1Cc2ccc(Br)cc2CCc2ccccc21 | 280 | 930 | –
CNC(=O)c1ccccc1-c1ccc2c(c1)CN(C(C)=O)c1ccc(Cl)cc1CC2 | 25 | 25 | –
CC(=O)N1Cc2cc(-c3cccc(C#N)c3)ccc2CCc2cc(Cl)ccc21 | 3 | 15 | –
CC(=O)N1Cc2ccccc2CSc2cccc(Cl)c21 | 11500 | – | –
CC(=O)N1Cc2ccccc2CSc2ccc(C(F)(F)F)cc21 | 2810 | – | –
CC(=O)N1Cc2cc(-c3ccccc3)ccc2CCc2cc(Cl)ccc21 | 4 | 18 | –
O=C(C1CC1)N1Cc2ccc(Br)cc2CCc2ccccc21 | 320 | 1750 | –

Structure (SMILES) | IC50 [1] [nM] | IC50 [2] [nM] | Stability (Liver microsomes) [nmol/mg/min]
CC(=O)N1Cc2ccccc2CSc2cc(S(C)(=O)=O)ccc21 | > 10000 | – | –
CC(=O)N1Cc2ccc(N)cc2CCc2ccccc21 | 490 | 490 | –
CC(=O)N1Cc2cc(-c3ccccc3C#N)ccc2CCc2cc(Cl)ccc21 | 5 | 62 | –
CC(=O)N1Cc2ccccc2CSc2c1ccc(Cl)c2Cl | 760 | 1300 | –
COC(=O)c1ccccc1-c1ccc2c(c1)CN(C(C)=O)c1ccc(Cl)cc1CC2 | – | 0.5 | 0.9
CC(=O)N1Cc2ccccc2CCc2ccc(Cl)cc21 | 50 | 130 | –
COc1ccc(-c2ccc3c(c2)CN(C(C)=O)c2ccc(Cl)cc2CC3)cc1 | 3 | 48 | –
COc1cccc(-c2ccc3c(c2)CN(C(C)=O)c2ccc(Cl)cc2CC3)c1 | 8 | 53 | –
COc1ccccc1-c1ccc2c(c1)CN(C(C)=O)c1ccc(Cl)cc1CC2 | 2 | 5 | –
CC(=O)c1ccccc1-c1ccc2c(c1)CN(C(C)=O)c1ccc(Cl)cc1CC2 | – | 0.5 | –
CC(=O)N1Cc2cc(-c3ccccc3CO)ccc2CCc2cc(Cl)ccc21 | 0.9 | 2 | –
CC(=O)N1Cc2cc(-c3ccccc3)ccc2CCc2ccccc21 | – | 4 | –
CC(=O)N1Cc2ccccc2CSc2cc(Cl)ccc21 | 100 | 160 | –
CC(=O)N1Cc2ccccc2CCc2ccccc21 | 90 | 220 | –
CC(=O)N1Cc2ccccc2COc2ccccc21 | 2970 | – | –
CC(=O)N1Cc2ccccc2CSc2cc(O)ccc21 | 4860 | – | –
CC(=O)N1Cc2ccccc2CNc2ccccc21 | 4740 | > 10000 | –
CC(=O)N1Cc2cc(-c3ccccc3NS(C)(=O)=O)ccc2CCc2cc(Cl)ccc21 | 2 | 9 | –
CC(=O)N1Cc2cc(-c3cccc(NS(C)(=O)=O)c3)ccc2CCc2cc(Cl)ccc21 | 140 | 190 | –
CC(=O)N1Cc2ccccc2CCc2cc(Cl)ccc21 | 70 | 630 | –
COC(=O)c1cccc(-c2ccc3c(c2)CN(C(C)=O)c2ccc(Cl)cc2CC3)c1 | 1.4 | 2 | –
CC(=O)N1Cc2cc(-c3cccc(CN)c3)ccc2CCc2cc(Cl)ccc21 | 290 | 180 | –
CC(=O)N1Cc2ccccc2/C=C\c2cc(Cl)ccc21 | 240 | 500 | –
